Data set [1] is described as follows: Stability test: HPLC relative purity of peptide dissolved in buffer, by pH and temperature. It counts as physicochemical. The method, then: For Example 1 and Comparative Example 1, stability tests according to pH for each temperature were performed.
Stability tests for each peptide were performed by liquid chromatography purity analysis for each temperature and each pH according to analysis timing (initial, 24 hours, 130 hours). […] Samples were analyzed by injecting 20 ul of each sample with an auto-sample injector, and the analysis column was Inspire C18 (4.6×250 mm, […], 12 nm) manufactured by Dikma. The analysis temperature was 40° C., and a UV wavelength of 215 nm was used.
On the basis of the HPLC analysis results, relative purity was calculated for Comparative Example 1 and Example 1 for each storage condition. The relative purity is the percentage of measured purity changing according to the storage period, with the initial purity being set to 100% for each sample. FIGS. 1 and 2 are graphs showing the results of stability tests for Example and Comparative Example stored at a temperature of 25° C., in which FIG. 1 is a graph of a test result for 24 hours of storage, and FIG. 2 is a graph of a test result for 130 hours of storage. FIGS. 3 and 4 are graphs showing the results of stability tests for Example and Comparative Example stored at 40° C., in which FIG. 3 is a graph of a test result for 24 hours of storage, and FIG. 4 is a graph of a test result for 130 hours of storage. In each graph, the x-axis represents the test group by pH and the y-axis represents the relative purity […].

In data set [2] the test system is MDA-MB-231. The experiment in a line: MDA-MB-231 fat pad xenograft in athymic nude mouse: tumor volume and weight. The class given is in vivo, human. The conditions noted are these: paclitaxel only. The method, then: 5×10^6 cells/head of the human triple negative breast cancer cell line MDA-MB-231 (American Type Culture Collection (ATCC)) were mixed with Matrigel and PBS (1:1). 100 ul of the mixture was injected into the right third fat pad of 7-week-old female athymic nude mouse. After the transplantation, drug administration started from an average tumor size of 80 mm^3. Paclitaxel 20 mg/kg was administered on Day 0 and on Day 1. That is, the paclitaxel 20 mg/kg was administered a total of two times. Then, the peptide of Example 1 was administered in a dose of 100 mg/kg on Day 2, Day 4, and Day 6. That is, the peptide of Example 1 was administered a total of three times. Tumor volumes were measured 3 times a week for 3 weeks after administration of the first dose. Tumor weights were measured by necropsy after the end of the experiment. For each group, ten mice were used.
Tumor volume changes over time for each group are shown in FIG. 8, and tumor weight on the eighteenth day after the administration of the first dose for each group is shown in FIG. 9. FIG. 8 is a graph illustrating the changes in tumor volume over time after sample administration in animal experimentation. In FIG. 8, the x-axis represents the number of days elapsed after the start of administration and the y-axis represents the tumor volume change (mm^3). FIG. 9 is a graph illustrating a tumor weight for each test group in animal experimentation. In FIG. 9, the x-axis represents test groups and the y-axis represents tumor weights (mg).
Background: In xenograft studies the graft and the host belong to different species.

Data set [3] has as its system MDA-MB-231. The experiment in a line: MDA-MB-231 xenograft in BalB/c nude mouse: survival rate. It counts as in vivo. The conditions noted are these: paclitaxel only. As to the method: To investigate survival rates of the paclitaxel-only administration group and the group co-administered with paclitaxel and the peptide of Example 1, experiments described below were performed. 5×10^6 cells/head of the human triple negative breast cancer cell line MDA-MB-231 were mixed with Matrigel and PBS (1:1). 100 ul of the mixture was injected into the right third fat pad of 7-week-old female BalB/c nude mouse. After the transplantation, drug administration started from an average tumor size of 70 mm^3. Paclitaxel 20 mg/kg was administered once weekly, and the peptide 100 mg/kg of Example 1 was administered subcutaneously 3 times weekly at 48-hour intervals, 48 hours after the paclitaxel administration. Each test group was administered for 12 weeks and animal survival was observed daily. FIG. 10 is a graph illustrating survival rates over time after sample administration in animal experimentation. In FIG. 10, the x-axis represents the elapsed time (days) after administration and the y-axis represents survival rates (%). […] In the case of the group co-administered with the peptide of Example 1, the first deceased mouse occurred on Day 60 of administration.

The test system of data set [4] is 4T1 cells. The experiment in a line: Syngeneic model implanted with paclitaxel-resistant 4T1 cells: tumor volume, Western blot of cleaved PARP and LC3II. It counts as in vivo, mouse. The following applies: paclitaxel only. The method, then:
Cell death and autophagy marker changes were determined by the Western blot method, using a syngeneic model implanted with 4T1 cells (American Type Culture Collection (ATCC)), which are mouse triple negative breast cancer tumor cells resistant to paclitaxel. The drug administration was started, when the tumor volume was reached to 70 mm^3 after a fat pad of Balb/c mice (6 weeks old, female) was transplanted with 4T1 cells in a concentration of 1×10^6 cells/head. For Week 1, paclitaxel 20 mg/kg was administered on Day 1 and Day 2, and the peptide (10, 100 mg/kg) of Example 1 was co-administered on Day 3, Day 5, and Day 7. In addition, the same process was performed for each of Week 2, and Week 3 (n=3). The tumor volumes were measured daily because the tumors grew very quickly. The changes in cleaved PARP, which is a cell death marker, and the changes in LC3II, which is an autophagy marker, in tumors were analyzed after necropsy on the day after the end of the 3-week administration, by a Western blot test.
FIG. 5 is a graph illustrating the results of tumor volume measurements according to the number of days after treatment in animal experimentation. In FIG. 5, the x-axis represents the number of days elapsed after treatment and the y-axis represents the tumor volume change (mm^3).
In addition, the changes in cleaved PARP, which is a cell death marker, are shown in FIG. 6, and the changes in LC3II, which is an autophagy marker, are shown in FIG. 7. FIG. 6 is a graph showing the changes in expression of cleaved PARP, which is a cell death marker, for each treatment group in animal experimentation, and FIG. 7 is a graph showing the changes in expression of LC3II, which is an autophagy marker, for each treatment group in animal experimentation.

Setting [5] is: eighteenth day after first dose.

In the case of “QLHLD [Comparative Example 1, reference compound]”, in data set [1] (liquid state, pH 2-9, 25 and 40° C., up to 130 hours), the “Stability (summary in words)” value is “in some cases, the samples were not stable”. In addition, the Relative purity in data set [1] (pH 2, 25 ± 2° C., RH 60 ± 5%, storage 0 hours (initial set to 100%)) was found to be 100.0%; in data set [1] (pH 2, 25 ± 2° C., RH 60 ± 5%, storage 24 hours), 79.0%; in data set [1] (pH 2, 25 ± 2° C., RH 60 ± 5%, storage 130 hours), 25.0%; in data set [1] (pH 2, 40 ± 2° C., RH 75 ± 5%, storage 0 hours (initial set to 100%)), 100.0%; in data set [1] (pH 2, 40 ± 2° C., RH 75 ± 5%, storage 24 hours), 27.6%; in data set [1] (pH 2, 40 ± 2° C., RH 75 ± 5%, storage 130 hours), 0.3%. For the same molecule, the Relative purity is given as 100.0% in data set [1] (pH 5, 25 ± 2° C., RH 60 ± 5%, storage 0 hours (initial set to 100%)); 77.9% in data set [1] (pH 5, 25 ± 2° C., RH 60 ± 5%, storage 24 hours); 21.7% in data set [1] (pH 5, 25 ± 2° C., RH 60 ± 5%, storage 130 hours); 100.0% in data set [1] (pH 5, 40 ± 2° C., RH 75 ± 5%, storage 0 hours (initial set to 100%)); 21.8% in data set [1] (pH 5, 40 ± 2° C., RH 75 ± 5%, storage 24 hours); 0.1% in data set [1] (pH 5, 40 ± 2° C., RH 75 ± 5%, storage 130 hours). Besides, the Relative purity in data set [1] (pH 7, 25 ± 2° C., RH 60 ± 5%, storage 0 hours (initial set to 100%)) is reported as 100.0%; in data set [1] (pH 7, 25 ± 2° C., RH 60 ± 5%, storage 24 hours), 28.5%; in data set [1] (pH 7, 25 ± 2° C., RH 60 ± 5%, storage 130 hours), 0.1%; in data set [1] (pH 7, 40 ± 2° C., RH 75 ± 5%, storage 0 hours (initial set to 100%)), 100.0%; in data set [1] (pH 7, 40 ± 2° C., RH 75 ± 5%, storage 24 hours), 0.2%; in data set [1] (pH 7, 40 ± 2° C., RH 75 ± 5%, storage 130 hours), 0.0%. The Relative purity in data set [1] (pH 9, 25 ± 2° C., RH 60 ± 5%, storage 0 hours (initial set to 100%)) stood at 100.0%; in data set [1] (pH 9, 25 ± 2° C., RH 60 ± 5%, storage 24 hours), 50.2%; in data set [1] (pH 9, 25 ± 2° C., RH 60 ± 5%, storage 130 hours), 2.4%; in data set [1] (pH 9, 40 ± 2° C., RH 75 ± 5%, storage 0 hours (initial set to 100%)) it was 100.0%; in data set [1] (pH 9, 40 ± 2° C., RH 75 ± 5%, storage 24 hours) it was 8.5%; in data set [1] (pH 9, 40 ± 2° C., RH 75 ± 5%, storage 130 hours) it was 0.0%.
For the molecule `CC(=O)O[C@H]1C(=O)[C@@]2(C)[C@H]([C@H](OC(=O)c3ccccc3)[C@]3(O)C[C@H](OC(=O)[C@H](O)[C@@H](NC(=O)c4ccccc4)c4ccccc4)C(C)=C1C3(C)C)[C@]1(OC(C)=O)CO[C@@H]1C[C@@H]2O` [paclitaxel, reference compound], the “CR (mice in which the tumor disappeared)” value in data set [2] (20 mg/kg Day 0 and Day 1, ten mice) is listed as 10%. In addition, in data set [2] (setting [5]), the “Reduction in tumor volume compared to control group” value is listed as 33% and the “Reduction in tumor weight compared to control group” value is on record as 34.5%. In addition, the “Day on which the tumor disappeared” value in data set [2] (one mouse) was 16 days. The “Day of administration on which the first deceased mouse occurred” value in data set [3] (20 mg/kg once weekly) was determined as 21 days. Besides, the “Survival rate after the end of the experiment” value in data set [3] (12 weeks) was 30%. In data set [4] (20 mg/kg, Balb/c mice), the “Reduction in tumor volume compared to the control group” value is reported as “insignificant reduction in tumor volume”. Also, the “Increase in LC3II expression level in tumor compared to control group” value in data set [4] (Western blot after 3-week administration) amounted to 2.4 fold.

For the origin of these results see patent US20250059232A1, “PENTAPEPTIDE AND USE THEREOF” (ENSOL BIOSCIENCES INC., priority 2021, published 2025).
